Assay results published in ChEMBL document CHEMBL5674860, “Optimized Dual-Glo Assay to identify co-culture-induced drug vulnerabilities in 3D CRC models” (2024).

What was measured:
Type in all cases: functional, Homo sapiens
Design in all cases: dose or concentration left out as unconfirmed
Colon cancer organoid [1] = experiment: Optimized Dual-Glo assay to identify co-culture induced drug vulnerabilities using donated chemical probes and chemogenomics kinase set in O06 CRC organoid and F06 CAF mono and co-culture. […] Cell viability is reported both mono and co-culture models.
Colon cancer organoid [2] = experiment: Optimized Dual-Glo assay to identify co-culture induced drug vulnerabilities using donated chemical probes and chemogenomics kinase set in O14 CRC organoid and F14 CAF mono and co-culture. […] Cell viability is reported both mono and co-culture models.
Colon cancer organoid [3] = experiment: Optimized Dual-Glo assay to identify co-culture induced drug vulnerabilities using donated chemical probes and chemogenomics kinase set in O20 CRC organoid and F20 CAF mono and co-culture. […] Cell viability is reported both mono and co-culture models.
[4] = Culture type Co-Culture, Transduced with Lucferase2-P2A-EGFP lentivirus
[5] = Culture type Co-Culture, Transduced with Renilla-dsRed lentivirus
[6] = Culture type Mono-Culture, Transduced with Lucferase2-P2A-EGFP lentivirus
[7] = Culture type Mono-Culture, Transduced with Renilla-dsRed lentivirus

SMILES | Cell Viability (Colon cancer organoid [1]; [4]) | Cell Viability (Colon cancer organoid [1]; [5]) | Cell Viability (Colon cancer organoid [1]; [6]) | Cell Viability (Colon cancer organoid [1]; [7]) | Cell Viability (Colon cancer organoid [2]; [4]) | Cell Viability (Colon cancer organoid [2]; [5]) | Cell Viability (Colon cancer organoid [2]; [6]) | Cell Viability (Colon cancer organoid [2]; [7]) | Cell Viability (Colon cancer organoid [3]; [4]) | Cell Viability (Colon cancer organoid [3]; [5]) | Cell Viability (Colon cancer organoid [3]; [6]) | Cell Viability (Colon cancer organoid [3]; [7])
COc1cc(N2CCC(O)CC2)ccc1Nc1cc(Nc2ccccc2S(=O)(=O)C(C)C)c2cc[nH]c2n1 | 85.241% | 81.2438% | 122.712% | 109.159% | 73.6565% | 103.778% | 68.2856% | 78.3072% | 108.471% | 84.332% | 70.9146% | 86.2422%
CCc1cccc(CC)c1NC(=O)c1nn(C)c2c1CCc1cnc(Nc3ccc(C(=O)NC4CCN(C)CC4)cc3OC(F)(F)F)nc1-2 | 8.756% | 150.393% | 5.577% | 91.0019% | 20.0347% | 229.301% | 20.3776% | 93.7404% | 94.4005% | 107.437% | 25.0865% | 90.076%
C[C@@H]1CCNC(=O)c2cc3ccc(C(=O)Nc4nc5ccccc5n4CCCN(C)C)cc3n21 | 65.6776% | 63.6239% | 102.952% | 73.3213% | 91.1023% | 83.3009% | 101.537% | 86.0489% | 64.9365% | 147.158% | 51.9591% | 102.286%
COc1cc(C)c(Sc2cnc(NC(=O)c3ccc(CNC(C)C(C)(C)C)cc3)s2)cc1C(=O)N1CCN(C(C)=O)CC1 (stereo unspecified) | 97.8632% | 73.4932% | 75.5351% | 54.8582% | 66.3781% | 81.9892% | 56.9877% | 80.9779% | 92.0383% | 97.5626% | 38.3034% | 78.8109%
O=C(Nc1cccnc1)c1cc(-c2ccnc(F)c2)ccc1OCc1ccccc1 | 87.3368% | 83.1264% | 73.6273% | 99.0368% | 118.198% | 103.257% | 132.36% | 106.667% | 125.655% | 104.766% | 84.3573% | 88.986%
CNc1nc(Nc2cnn([C@H]3CCN(C4COC4)C[C@@H]3F)c2Cl)ncc1C(F)(F)F | 94.4056% | 87.0484% | 128.459% | 108.44% | 116.318% | 104.728% | 169.727% | 102.216% | 199.298% | 86.9942% | 108.189% | 89.737%
CC(C)(O)CNc1ncc(-c2ccnc(Nc3ccnc(Cl)c3)n2)c(CC2CC2)n1 | 30.6205% | 168.017% | 58.1247% | 187.59% | 100.5% | 183.934% | 107.577% | 192.643% | 67.7034% | 172.835% | 40.8339% | 186.893%
CCOc1cc(N2CCC(O)CC2)ccc1Nc1ncc2c(n1)N(C1CCCC1)CCC(=O)N2C | 80.3618% | 151.464% | 49.5621% | 184.932% | 86.8191% | 245.351% | 52.078% | 149.574% | 51.9112% | 144.517% | 36.2832% | 127.288%
Cn1cc(-c2[nH]c3cc(NC(=O)[C@H](N)C4CCCCC4)cc4c3c2C=NNC4=O)cn1 | 9.334% | 180.436% | 3.761% | 107.077% | 1.93% | 159.115% | 4.927% | 82.9355% | 23.152% | 172.741% | 12.2596% | 94.31%
CCNC(=O)c1cc2c(N3CCOC[C@@H]3C)ccnc2n1C | 128.018% | 156.16% | 122.983% | 98.196% | 83.5289% | 107.252% | 73.6623% | 93.9449% | 107.341% | 102.95% | 119.318% | 105.417%
O=C(Nc1ccc(-c2ccnc(Nc3ccc(N4CCOCC4)cc3)n2)cc1)[C@@H]1CCCN1 | 100.254% | 96.014% | 101.806% | 108.082% | 127.595% | 79.807% | 135.011% | 98.0054% | 138.223% | 76.0213% | 82.2702% | 101.459%
CCC(=O)Nc1cccc(Oc2nc(Nc3ccc(N4CCN(C)CC4)cc3OC)ncc2Cl)c1 | 92.8013% | 94.5997% | 65.5336% | 70.4946% | 114.921% | 101.654% | 90.6079% | 93.4216% | 125.445% | 105.023% | 80.3355% | 88.9581%
CCc1cc(Nc2nccc(-c3c(-c4ccc(OC)c(C(=O)Nc5c(F)cccc5F)c4)nc4ccccn34)n2)c(OC)cc1N1CCC(N2CCN(S(C)(=O)=O)CC2)CC1 | 86.7992% | 78.7013% | 91.9397% | 111.569% | 94.7667% | 100.13% | 92.2589% | 95.6551% | 116.043% | 82.2783% | 81.9449% | 100.572%
C=CC(=O)Nc1ccc2[nH]c(=O)n(C3CCN(C(=O)c4ccc(-c5nc6cc[nH]c(=O)c6cc5-c5ccccc5)cc4)CC3)c2c1 | 100.634% | 129.997% | 117.336% | 96.7859% | 111.176% | 112.94% | 102.423% | 83.7994% | 101.159% | 80.5582% | 103.07% | 78.5683%
CCN(Cc1ccc(Cl)cc1)c1ncc(C(=O)NCCCN2CCCC2=O)c(NC2CCCC2)n1 | 130.769% | 112.754% | 126.765% | 120.519% | 82.1387% | 108.641% | 123.72% | 100.116% | 67.2116% | 104.655% | 126.603% | 126.47%
CC(C)S(=O)(=O)c1ccc2nccc(Nc3ccc4scnc4c3)c2c1 | 84.0973% | 95.5761% | 123.937% | 111.512% | 101.708% | 94.4181% | 92.6068% | 100.536% | 145.741% | 98.2209% | 115.329% | 92.1603%
Cc1cnc(Nc2ccc(F)cc2Cl)nc1-c1c[nH]c(C(=O)N[C@H](CO)c2cccc(Cl)c2)c1 | 51.8597% | 63.6391% | 9.819% | 57.8689% | 10.9302% | 34.4005% | 7.352% | 19.5504% | 6.951% | 113.857% | 5.763% | 41.0342%
CNC(=O)Nc1ccc(-c2nc(N3CC4CCC(C3)O4)c3cnn(C4CCC5(CC4)OCCO5)c3n2)cc1 | 4.885% | 48.532% | 5.396% | 31.9288% | 9.5061% | 63.2179% | 14.6121% | 40.9027% | 5.834% | 97.6391% | 5.978% | 53.3135%
